Read-outs that look alike come from different tables or passages of the source. Marks after values point to notes of the source that are not given here.
How the values were obtained:
[1] = Duodenal fluid volume via MRI, control vs PPI condition; assay type: in vivo, human; settings: for relative decrease in duodenal AUVC: first 180 min after Norvir tablet with 240 mL water, n = 5
Method: All volunteers provided written informed consent before participating in the trial. Each trial day, the participant came to the radiology department at the University Hospitals Leuven after an overnight fast (at least 12 h). Water was allowed until the night before the trial except for the volume needed to swallow the PPI tablet. For the PPI condition, participants were pre-treated with a once-daily dose of Nexium (just before breakfast) starting two days prior to the trial day. On the morning of the trial, the final Nexium tablet was taken 2 h prior to the arrival time at the hospital, with as little water as possible to swallow the tablet. […] A venous catheter was placed in the subject’s arm and a blank blood sample (5 mL) was collected in heparinized tubes (BD Vacutainer systems, Plymouth, UK). […] A scouting sequence was used in the coronal and transversal plane to allow correct sequence positioning. At each time point, three standardized sequences were used to acquire images; sequence parameters are depicted in Table 1. Images were taken during exhalation breath hold. Images were analysed using Horos™ (Version 3.3.6, Horos project), a free open source medical images viewer. […] This made the sequence unsuitable for fluid determination as the duodenum passes these blood vessels which would interfere with the outlining of the fluid present in the duodenum. Sequence 2 was therefore used as a localizer for the duodenum (i.e., determining the location of the duodenojejunal flexure (Figure 1). As free water lights up in a T2 weighted image, a trained operator semi-automatically traced all the bright spots in each slice for the stomach and duodenum, according to a published procedure. […] This cut-off value must be regarded as a rule of thumb and manual correction was made to account for bright organs like the gall bladder and obvious acquisition errors (e.g., illogical dark spots in the middle of a fluid filled stomach).

[2] = design: method as in PMID 32461076; settings: daily dose of 40 mg esomeprazole for three days; cited from earlier work
[3] = Gastric fluid volume via MRI, control vs PPI condition; assay type: in vivo, human; settings: for relative decrease in total gastric fluid volume (AUVC): first 180 min after Norvir tablet with 240 mL water, median, n = 5
Method: Each trial day, the participant came to the radiology department at the University Hospitals Leuven after an overnight fast (at least 12 h). Water was allowed until the night before the trial except for the volume needed to swallow the PPI tablet. For the PPI condition, participants were pre-treated with a once-daily dose of Nexium (just before breakfast) starting two days prior to the trial day. On the morning of the trial, the final Nexium tablet was taken 2 h prior to the arrival time at the hospital, with as little water as possible to swallow the tablet. […] A venous catheter was placed in the subject’s arm and a blank blood sample (5 mL) was collected in heparinized tubes (BD Vacutainer systems, Plymouth, UK). […] In addition, subjects were placed in a Philips 1.5 T MRI System (Philips, Best, The Netherlands) to assess the gastric and duodenal fluid volume, once before administration of the study medication and afterwards at predetermined time points, i.e., 20, 40, 60, 90, 120, 150 and 180 min.
Upon entering the MRI system, a rectangular dStream FlexCoverage Anterior coil (Ingenia 1.5 tesla, Philips, Best, The Netherlands) was placed on the torso of the subjects. A scouting sequence was used in the coronal and transversal plane to allow correct sequence positioning. […] Images were taken during exhalation breath hold.
Images were analysed using Horos™ (Version 3.3.6, Horos project), a free open source medical images viewer. Gastric and duodenal fluid volumes reported in this study were acquired with sequence 1. […] This made the sequence unsuitable for fluid determination as the duodenum passes these blood vessels which would interfere with the outlining of the fluid present in the duodenum.
As free water lights up in a T2 weighted image, a trained operator semi-automatically traced all the bright spots in each slice for the stomach and duodenum, according to a published procedure [21]. To differentiate between free water and other contents in the respective organs, a cut-off value (lower threshold) of 30% of the brightest voxel in either the stomach or the duodenum was applied. This cut-off value must be regarded as a rule of thumb and manual correction was made to account for bright organs like the gall bladder and obvious acquisition errors (e.g., illogical dark spots in the middle of a fluid filled stomach). Subsequently, a 3D image of the traced fluid was rendered and the fluid volume was calculated by adding up the fluid volumes of each slide (multiplying the surface area of the traced region of interest with the slice thickness).

[4] = cited from earlier work
[5] = design: method as in PMID 18991471; settings: compared to esomeprazole, pantoprazole and rabeparzole; cited from earlier work
[6] = cited from earlier work; remark: listed apart in the source
[7] = Ritonavir plasma concentrations after oral intake of a Norvir tablet, control vs PPI condition (LC-MS/MS); assay type: in vivo, human; settings: for AUC0-480min / Tmax: one Norvir tablet oral, fasted, median (range), n = 4
Method: All volunteers provided written informed consent before participating in the trial. Each trial day, the participant came to the radiology department at the University Hospitals Leuven after an overnight fast (at least 12 h). Water was allowed until the night before the trial except for the volume needed to swallow the PPI tablet. For the PPI condition, participants were pre-treated with a once-daily dose of Nexium (just before breakfast) starting two days prior to the trial day. On the morning of the trial, the final Nexium tablet was taken 2 h prior to the arrival time at the hospital, with as little water as possible to swallow the tablet. A daily dose of 40 mg esomeprazole for three days has shown to elevate and sustain the gastric and duodenal pH to values around 7.1 and 7.5, respectively, indicative of the acid-inhibitory effect. A venous catheter was placed in the subject’s arm and a blank blood sample (5 mL) was collected in heparinized tubes (BD Vacutainer systems, Plymouth, UK). […] In addition, subjects were placed in a Philips 1.5 T MRI System (Philips, Best, The Netherlands) to assess the gastric and duodenal fluid volume, once before administration of the study medication and afterwards at predetermined time points, i.e., 20, 40, 60, 90, 120, 150 and 180 min.
Blood samples were stored on ice during the remainder of the study day, before centrifugation at 2880× g, for 10 min at 4 °C (Centrifuge 5804R, Eppendorf, Hamburg, Germany). Plasma was collected and stored at −20 °C pending analysis. For analysis, a liquid-liquid extraction was performed in which 50 µL of plasma was added to 450 µL HBSS and vortexed for a few seconds. Lopinavir was used as internal standard: 100 µL of a 200 nM stock solution in 25% v/v DMSO-water was added to the mixture. Before extraction, the pH was adjusted by adding 500 µL of 40 mM borax buffer (pH = 9), followed by 5 mL of the extraction medium hexane—ethyl acetate (50:50, v/v) and shaken for 1 min. The mixture was centrifugated at 2880× g, for 5 min at 4 °C and the organic layer was transferred to a new test tube and evaporated to dryness under a gentle airflow. The residue was redissolved in 1 mL of methanol and vortexed for 30 s before another evaporation cycle. The resulting residue was reconstituted in 200 µL methanol—water (50:50, v/v) awaiting analysis.
For the analysis, a Waters ACQUITY UHPLC H-Class system consisting of a quaternary pump was used combined with a Waters Xevo TQ-S micro mass spectrometer (Waters, Milford, MA, USA). Separation took place on a Kinetex® column (2.6 µm XB-C18 100 A, 50 × 2.1 mm, Phenomenex, Utrecht, the Netherlands) using isocratic elution with methanol—0.1% formic acid (65:35, v/v) followed by a wash gradient and re-equilibration (Table 2). Column temperature was set at 35 °C and samples were kept in the autosampler at 15 °C. […] Peaks were detected with MS/MS, using electrospray ionization (ESI) as ion source. […] Fragmentation was induced by collision with argon. The system was operated in multi-reaction monitoring (MRM) mode with the mass transitions according to Table 3.

[8] = design: method as in PMID 32461076; settings: median; esomeprazole pre-treatment, Norvir tablet; cited from earlier work
[9] = PPI vs control condition, volunteer HV02
[10] = PPI vs control condition, median, present study

COc1ccc2nc([S@@+]([O-])Cc3ncc(C)c(OC)c3C)[nH]c2c1 [esomeprazole]
duodenal fluid volume ([1]; PPI condition, after Norvir tablet with 240 mL water, median): 8.6 mL
relative decrease in duodenal AUVC ([1]; PPI vs control condition, median): 33%
relative decrease in duodenal AUVC ([1]; PPI vs control condition, median, listed as PPI): 33.3%
drop in duodenal fluid AUVC [1, 9]: 37%
decrease in duodenal fluid volume ([1]; after PPI treatment, average over all volunteers): 32%
duodenal pH [2]: ~7.5
gastric pH [2]: around 7.1
relative decrease in gastric residual volume (GRV) ([3]; PPI vs control condition, fasted, prior to ritonavir intake, five volunteers): 41%
relative decrease in total gastric fluid volume (AUVC) ([3]; PPI vs control condition): 44%
relative decrease in total gastric fluid volume (AUVC) ([3]; PPI vs control condition, listed as PPI): 43.9%
gastric residual volume (GRV) ([3]; following pre-treatment with esomeprazole 40 mg for three days, fasted state, mean ± SD): 20 ± 15 mL

COc1ccc2[nH]c([S+]([O-])Cc3ncc(C)c(OC)c3C)nc2c1 (stereo not drawn) [omeprazole]
effect on plasma Cmax or AUC of ritonavir [4]: did not report an effect
effect on the gastric fluid volume compared to other PPIs [5]: less pronounced effect on the gastric fluid volume

CC(C)c1nc(CN(C)C(=O)N[C@H](C(=O)N[C@@H](Cc2ccccc2)C[C@H](O)[C@H](Cc2ccccc2)NC(=O)OCc2cncs2)C(C)C)cs1 [ritonavir]
Log P [6]: 4.3
pKa ([6]; weak base): 2.6
AUC0-480min ([7]; PPI condition (esomeprazole 40 mg once daily for three days)): 2.5 · 10^5 (1.2 · 10^5–3.2 · 10^5) nmol·min/L
PPI-induced decrease in Cmax [7, 10]: 39.0%
delay in tmax [7, 10]: 10%
drop in plasma AUC [7, 9]: 65%
Tmax ([7]; both sexes, human, plasma, po, 40 mg, PPI condition (esomeprazole 40 mg once daily for three days), read-out: tmax (converted)): 3.75 h
Cmax ([7]; both sexes, human, plasma, po, 100 mg): 1130 nM
Tmax ([7]; both sexes, human, plasma, po, 100 mg, control condition, read-out: tmax (converted)): 3.22 h
AUC0-480min ([7]; control condition): 3.8 · 10^5 (2.6 · 10^5–5.9 · 10^5) nmol·min/L
Tmax ([7]; control condition): 192.5 (175–240) min
PPI-induced decrease in AUC0–480min [8]: 39.5%
PPI-induced decrease in Cmax [8]: 49.6%
delay in tmax [8]: 50%
